Common to all, as to experiment: inhibition of tumour cell growth, NCI panel, 48 h
Assay [1] deals with HCT-15 colon.
Assay [2] concerns HOP-92 NSCLC.
Assay [3] has as its system KM12 colon.
Assay [4] has as its system SF-295 CNS.
Assay [5] deals with SK-MEL-5 melanoma.
Assay [6] concerns SK-OV-3 ovarian.
For assay [7], the system named is U251 CNS.
The test system of assay [8] is UACC-257 melanoma.
For assay [9], the system named is MCF7 breast.
Assay [10] relates to PC-3 prostate.

Structures are written as SMILES. Values joined by “and” are separate entries in the source; they are usually repeats but may differ in a detail not shown here. Equal values may be shown once.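 Growth conditions: 96-well plates. Treatment: test compound, 48 hours, 5 concentrations. Analysis: linear interpolation between bracketing concentrations; unreached endpoints set to highest concentration. Abbreviation: GI50, concentration required for 50% inhibition of growth. TGI denotes the concentration required for complete inhibition of growth.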

Turning to `COc1nc(NC2OC(COC(C)=O)C(OC(C)=O)C(OC(C)=O)C2OC(C)=O)c2c(OC(C)=O)cc(=O)oc2n1` (stereo not drawn), the TGI in assay [1], in [2], in assay [3], in [4], in assay [5] and in [6] was more than 100 µM throughout. Moreover, the TGI in [7] and in assay [8] was more than 100 µM throughout.

Take `CC(=O)O/N=C(/C)c1ccccc1O`: the TGI in [3], in [4], in [6], in assay [7] and in [8] was more than 100 µM throughout.

For the molecule `CC(C)(C)c1cc2c(O)c3cccc4c(=O)c5cccc6c5-c(c34)c2c(c1)c6=O`, the TGI in assay [1] is more than 100 µM; in assay [2] it was 96.5 µM; in [3], more than 100 µM; in assay [4] it was more than 100 µM; in assay [6], more than 100 µM; in [7], more than 100 µM. Moreover, the TGI in [8] is more than 100 µM.

As for `C=C(C)CCOC(c1ccccc1)(c1ccccc1)c1ccccc1`, the TGI in [1], in assay [2], in assay [3], in [4], in assay [5] and in assay [6] was more than 100 µM each time. The TGI in assay [7] is more than 100 µM; in assay [8], 80.5 µM.

As for `O=[N+]([O-])c1ccc(Cl)cc1N/N=C/c1ccnc2ccccc12`, the TGI in assay [1], in [3], in assay [9], in assay [10], in assay [4] and in assay [5] was more than 100 µM each time. In addition, the TGI in assay [6], in [7] and in assay [8] was more than 100 µM each time.

In the case of `CCCCN(CCCC)C(=O)C(=O)C(C(=O)c1ccc(OC)cc1)c1ccc(OC)cc1` (stereo not drawn), the TGI in [1], in assay [2], in assay [3], in assay [4], in assay [5] and in assay [6] was more than 100 µM each time. Moreover, the TGI in assay [7] and in [8] was more than 100 µM each time.

Take `Cc1ccc(/C=C/C(=O)CCN(C)C)cc1`: the TGI was 38.2 µM in assay [1]; 38.1 µM in assay [2]; 14 µM in assay [3]; more than 100 µM in [4]; 34.4 µM in assay [5]; more than 100 µM in assay [6]. The TGI in [7] worked out at 30 µM; in assay [8], 31 µM.

Turning to `O=C(Nc1ccccc1-c1nn(C(=S)Nc2ccccc2)c(=S)n(C(=S)Nc2ccccc2)c1=O)C(F)(F)F`, the TGI was more than 78.3 µM in [1]; 57.9 µM in [2]; 52 µM in assay [3]; more than 100 µM in assay [4]; 26 µM in assay [5]; more than 100 µM in assay [6]. Besides, the TGI was more than 70.9 µM in [7] and 31.4 µM in assay [8].

On to `COc1ccc(C)cc1-c1cc(Sc2ccccc2)c(-c2cc(C)ccc2OC)o1`, for which the TGI in [1] is more than 31.6 µM; in assay [2] it was more than 31.6 µM; in [3], more than 31.6 µM; in assay [4] it was more than 100 µM; in assay [5] it was more than 31.6 µM; in [6], more than 31.6 µM. Also, the TGI in assay [7] and in assay [8] was more than 31.6 µM in each case.

As for `C/C(CCn1[nH]c(=O)ccc1=O)=N\NC(=O)C(=O)NN`, the TGI in assay [1], in assay [3], in [4], in [5], in assay [6] and in assay [8] was more than 100 µM throughout.

With `O=S(=O)(N/N=C/c1cccc(/C=N/NS(=O)(=O)c2ccccc2)c1)c1ccccc1`, the TGI is more than 100 µM in assay [1]; 97.2 µM in assay [2]; more than 100 µM in assay [3]; more than 100 µM in assay [4]; more than 100 µM in [5]; more than 100 µM in assay [6]. The TGI in assay [7] and in assay [8] was more than 100 µM throughout.

As for `CN(C)CCn1c2c3ccccc3ccc2c2oc(=O)c3ccccc3c21`, the TGI worked out at 46.9 µM in assay [1]; 17.6 µM in [2]; 37 µM in assay [3]; 20.8 µM in [4]; 7.35 µM in assay [6]; 20 µM in assay [7]. In assay [8], this molecule yielded a TGI of 16.4 µM.

With `c1ccc(NCn2cnc3ccccc32)cc1`, the TGI in assay [1], in assay [3], in assay [4], in assay [5], in [6] and in [7] was more than 100 µM throughout. In assay [8], the TGI was more than 100 µM.

With `NC(=O)C(=Cn1c(=S)[nH]c2ccc([N+](=O)[O-])cc21)C(N)=O`, the TGI in assay [1], in assay [2], in [3], in assay [4], in assay [5] and in assay [6] was more than 100 µM throughout. In addition, the TGI in assay [7] and in assay [8] was more than 100 µM throughout.

As for `Cc1ccc(Oc2ccc(C)cc2N)cc1`, the TGI in [1] was more than 100 µM; in assay [2] it was 95.3 µM; in assay [3], more than 100 µM; in [4], more than 100 µM; in assay [5], more than 100 µM; in [6], more than 100 µM. Moreover, the TGI in assay [7] and in assay [8] was more than 100 µM each time.

As to `Cc1cc2c(C)[nH]nc2c(C(=O)O)c1C`, the TGI in assay [1], in assay [3], in assay [4], in [7] and in assay [8] was more than 100 µM in each case.

On to `O=C1C=CC(=O)c2nc3c(cc21)CCC3`, for which the TGI in [2] is 34.1 µM; in assay [3], more than 100 µM; in [4], more than 100 µM; in assay [5] it was 45.9 µM; in assay [7], more than 100 µM; in assay [8], 33.9 µM.

With `CC(C)=CCC(O)C1=CC(=O)c2c(O)ccc(O)c2C1=O` (stereo not drawn), the TGI in [1] came out at 0.526 µM; in [3], 16.9 µM; in assay [9], 2.11 µM; in assay [10] it was 5.17 µM; in [4] it was 9.3 µM; in assay [5], 1.88 µM. Besides, the TGI is 24 µM in assay [6], 4.74 µM in assay [7] and 3.24 µM in assay [8].

For the molecule `C=CC[C@H](C[C@H](C[C@H](C[C@H](C[C@H](C[C@H](C[C@H](C[C@H](C[C@H](C[C@H](CCCCC)OC)OC)OC)OC)OC)OC)OC)OC)OC)OC`, the TGI in assay [2], in assay [3], in assay [4], in [5], in assay [6] and in assay [7] was more than 100 µM each time. For the same molecule, the TGI in [8] was more than 100 µM.

`COC(=O)C(CCCN1C(=O)c2ccccc2C1=O)C(=O)OC`: the TGI in assay [1], in [2], in assay [3], in assay [4], in [5] and in [6] was more than 100 µM each time. For the same molecule, the TGI in [7] and in assay [8] was more than 100 µM in each case.

On to `O=C(/C(=C/c1ccc([N+](=O)[O-])cc1)SCc1ccccc1)c1ccc(Cl)cc1`, for which the GI50 was 2.14 µM in assay [1]; 2.28 µM in [2]; 2.34 µM in [3]; 2.35 µM in [10]; 5.54 µM in [4]; 3.41 µM in assay [5]. Moreover, the GI50 in assay [6] was 14.4 µM; in assay [7], 1.88 µM; in assay [8], 6.36 µM. In addition, the TGI in assay [1] is 5.41 µM; in [2] it was 9.46 µM; in assay [3], 6.91 µM; in [10], 5.43 µM; in assay [4], 18.9 µM; in assay [5], 12.4 µM. Moreover, the TGI in assay [6] is 36.4 µM; in assay [7], 4.09 µM; in assay [8] it was 19.4 µM.

Consider `Cc1ccc(/C=C/C(=O)c2cccc3ccccc23)cc1`, for which the TGI in assay [1] turned out to be 35.3 µM; in assay [3], 27.9 µM; in assay [4], 31.7 µM; in assay [6], 62.5 µM; in assay [7], 25.6 µM; in assay [8], 33.7 µM.

For the molecule `Nc1ccccc1SC(CC(=O)c1ccccc1)c1cccc([N+](=O)[O-])c1` (stereo not drawn), the GI50 in [1] is 11.5 µM; in assay [3], 6.24 µM; in assay [9], 2.6 µM; in assay [10], 12.5 µM; in assay [4], 16.2 µM; in [5], 15.4 µM. The GI50 in assay [6] was 18.1 µM; in assay [7] it was 7.51 µM; in assay [8], 17.1 µM. Further, the TGI turned out to be 28.4 µM in assay [1]; 19.3 µM in assay [3]; 18 µM in assay [9]; 25.5 µM in assay [10]; 30.3 µM in assay [4]; 29 µM in assay [5]. For the same molecule, the TGI in assay [6] was 32 µM; in assay [7] it was 20.7 µM; in assay [8] it was 31.1 µM.

Turning to `N[C@@H]1CCCC[C@@H]1N.O=P([O-])([O-])CN(CCN(CP(=O)([O-])[O-])CP(=O)([O-])[O-])CP(=O)([O-])[O-].[Pt+2]`, the GI50 in [1], in assay [3], in assay [4], in [5], in [6] and in [7] was more than 25 µM each time. In addition, the GI50 in assay [8] was more than 25 µM. For the same molecule, the TGI in assay [1], in [3], in assay [4], in assay [5], in [6] and in [7] was more than 25 µM throughout. The same molecule showed a TGI in [8] of more than 25 µM.

In the case of `CC(=O)NNc1nc(C)c(C(=O)/C=C/c2ccc(NC(C)=O)cc2)s1`, the TGI in assay [1], in [2], in assay [3], in assay [4], in assay [5] and in [6] was more than 100 µM throughout. In addition, the TGI in assay [7] and in [8] was more than 100 µM in each case.

For `CCOC(=O)C1=C(C(=O)OCC)C2c3ccccc3C=CN2C(C(=O)OCC)=C(SC)S1` (stereo not drawn), the TGI in [1], in assay [4], in [5], in assay [6], in [7] and in assay [8] was more than 100 µM throughout.

With `S=c1sc2c(n1-c1ccccc1)NC=NC2S` (stereo not drawn), the TGI in assay [1] was more than 100 µM; in [2], 71.1 µM; in [3], more than 100 µM; in assay [4], more than 100 µM; in assay [5] it was more than 100 µM; in [6] it was more than 100 µM. Moreover, the TGI in assay [7] and in assay [8] was more than 100 µM throughout.

Regarding `COc1cc(C2CC(C)(O)Oc3cc4c(cc32)OCO4)cc(OC)c1OC` (stereo not drawn), the TGI is more than 100 µM in assay [1]; more than 100 µM in assay [2]; 0.595 µM in assay [3]; 23.6 µM in assay [9]; 0.494 µM in assay [5]; 20.1 µM in assay [7]. The TGI in assay [8] was more than 100 µM.

As for `CCCCCCCCCCCCCCCC[N+](C)(C)Cc1ccccc1`, the GI50 in assay [1] is 2.86 µM and 3.24 µM; in assay [3] it was 1.13 µM; in assay [10], 0.537 µM; in assay [4], 1.55 µM; in [5], 1.33 µM; in assay [6], 1.68 µM. Moreover, the TGI is 15.8 µM and > 30.4 µM in assay [1]; 2.42 µM in assay [3]; 2 µM in [10]; 3.29 µM in assay [4]; 2.62 µM in assay [5]; 3.7 µM in assay [6].

Consider `CC(=O)OCCOCNC(=S)N/N=C(\C)c1cnccn1`, for which the TGI in assay [1] is more than 100 µM; in [3], more than 100 µM; in assay [4], more than 100 µM; in assay [5], 32.7 µM; in assay [6], more than 100 µM; in assay [7], more than 100 µM. The molecule also gave a TGI in assay [8] of more than 100 µM.

Regarding `CCCCCC[C@@H]1CCC2C(CO)[C@@H](O)CC[C@@H]2C1` (stereo partly drawn), the TGI in assay [1] was 33.4 µM; in assay [3], 36.2 µM; in assay [4] it was 30.3 µM; in assay [5], 34.2 µM; in assay [7], 33.9 µM; in assay [8] it was 31 µM.
